Target: human F508del-CFTR (Homo sapiens, UniProt P13569, DEL508-508)
Assay: F508del-CFTR cell surface expression (corrector activity), DiscoveRx ß-galactosidase complementation chemiluminescence assay in recombinant U2OS cell line;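 note: U2OS cells co-expressing ProLink-tagged F508del-CFTR and a membrane-anchored enzyme acceptor, where more surface CFTR restores β-galactosidase activity measured by chemiluminescence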
Settings: for EC50: EC50, F508del-CFTR cell surface expression; for Emax: U2OS
[1] = U2OS cell line, 16h compound incubation, geomean values
[2] = in relation to the Emax of the corrector lumacaftor (=100%), U2OS cell line, 16h compound incubation, arithmetic mean values
[3] = U2OS cells, 16h compound incubation, geomean values
[4] = in relation to Emax of corrector lumacaftor (=100%), arithmetic mean values
[5] = U2OS cells, 16h compound incubation, geomean of several measurements
[6] = in relation to the Emax of the corrector lumacaftor (=100%), U2OS cells, 16h compound incubation, arithmetic mean

human F508del-CFTR, sequence (P13569 with tags, fused parts or gaps DEL508-508): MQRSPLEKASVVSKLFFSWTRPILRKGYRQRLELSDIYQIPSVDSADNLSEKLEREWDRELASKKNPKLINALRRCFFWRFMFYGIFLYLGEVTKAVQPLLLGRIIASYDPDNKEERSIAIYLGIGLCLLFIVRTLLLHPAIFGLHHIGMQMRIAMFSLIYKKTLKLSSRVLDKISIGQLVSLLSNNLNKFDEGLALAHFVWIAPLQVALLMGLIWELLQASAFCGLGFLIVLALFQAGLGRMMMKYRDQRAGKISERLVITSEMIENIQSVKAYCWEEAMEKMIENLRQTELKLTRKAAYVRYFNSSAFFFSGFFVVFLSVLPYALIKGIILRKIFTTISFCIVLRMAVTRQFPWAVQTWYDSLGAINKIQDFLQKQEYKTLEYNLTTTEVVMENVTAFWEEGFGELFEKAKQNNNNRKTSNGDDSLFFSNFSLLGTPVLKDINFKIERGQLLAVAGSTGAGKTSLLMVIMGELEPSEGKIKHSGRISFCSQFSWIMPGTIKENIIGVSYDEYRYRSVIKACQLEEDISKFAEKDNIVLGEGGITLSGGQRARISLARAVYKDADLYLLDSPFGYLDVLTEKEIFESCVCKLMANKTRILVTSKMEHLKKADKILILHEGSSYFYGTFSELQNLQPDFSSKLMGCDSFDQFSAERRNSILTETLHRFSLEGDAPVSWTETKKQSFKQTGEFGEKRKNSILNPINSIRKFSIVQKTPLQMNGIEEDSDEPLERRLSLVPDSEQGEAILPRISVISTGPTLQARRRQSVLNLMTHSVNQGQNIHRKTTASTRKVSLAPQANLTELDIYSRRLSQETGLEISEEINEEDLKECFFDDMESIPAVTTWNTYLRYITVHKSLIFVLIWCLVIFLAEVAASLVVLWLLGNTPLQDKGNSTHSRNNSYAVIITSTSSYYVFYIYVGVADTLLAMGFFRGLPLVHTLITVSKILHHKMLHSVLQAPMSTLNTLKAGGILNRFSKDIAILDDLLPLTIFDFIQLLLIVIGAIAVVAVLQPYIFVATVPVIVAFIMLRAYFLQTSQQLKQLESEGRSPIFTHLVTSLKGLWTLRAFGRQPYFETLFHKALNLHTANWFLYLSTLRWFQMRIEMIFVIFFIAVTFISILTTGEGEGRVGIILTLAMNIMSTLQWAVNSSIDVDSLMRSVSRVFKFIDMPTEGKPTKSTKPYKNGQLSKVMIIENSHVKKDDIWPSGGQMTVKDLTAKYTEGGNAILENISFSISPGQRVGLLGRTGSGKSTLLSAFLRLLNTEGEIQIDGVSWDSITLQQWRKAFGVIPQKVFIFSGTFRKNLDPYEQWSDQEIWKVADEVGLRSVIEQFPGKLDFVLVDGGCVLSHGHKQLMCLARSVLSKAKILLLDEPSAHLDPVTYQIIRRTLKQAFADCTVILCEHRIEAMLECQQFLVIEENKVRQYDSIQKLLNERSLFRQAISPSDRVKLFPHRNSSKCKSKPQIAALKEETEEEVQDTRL

Row | EC50 [3] | Emax [4] | Compound | EC50 [1] | Emax [2] | also measured
1 |  |  | Cc1cccc2c1C(=O)N[C@H](C(=O)NCCc1ccc3c(c1)OCO3)CC(=O)N(C)[C@@H](CC(C)C)C(=O)N(C)CC(=O)N[C@H](Cc1ccccc1)CO2 [Example 235, (3R,9S,13S)-N-(2-(benzo[d][1,3]dioxol-5-yl)ethyl)-3-benzyl-9-isobutyl-7,10,16-trimethyl-5,8,11,15-tetraoxo-2,3,4,5,6,7,8,9,10,11,12,13,14,15-tetradecahydrobenzo[p][1]oxa[4,7,10,14]tetraazacycloheptadecine-13-carboxamide] | 825 nM | 117% | 
2 |  |  | CC(C)C[C@H]1C(=O)N(C)C2(CC2)C(=O)N[C@H](Cc2ccccc2)COc2cnc3ccc(F)cc3c2C(=O)N[C@H](C(=O)NCCc2nc(C3CC3)no2)CC(=O)N1C [Example 140, (3′S,7′S,13′R)-13′-benzyl-N-(2-(3-cyclopropyl-1,2,4-oxadiazol-5-yl)ethyl)-20′-fluoro-7′-isobutyl-6′,9′-dimethyl-1′,5′,8′,11′-tetraoxo-2′,3′,4′,5′,6′,7′,8′,9′,11′,12′,13′,14′-dodecahydro-1′H-spiro[cyclopropane-1,10′-[1]oxa[4,7,10,14]tetraazacycloheptadecino[17,16-c]quinoline]-3′-carboxamide] | 142 nM | 318% | 
3 | 480 nM | 253% | COc1cncc(S(=O)(=O)N2CCN3C(=O)[C@H](CC(C)C)N(C)C(=O)C[C@@H](C(=O)NCCc4cc(C)no4)NC(=O)c4c(ccc5ccccc45)OC[C@@H](Cc4ccccc4)NC(=O)[C@H]3C2)c1 [Example 479, (4aR,7R,18S,22S)-7-benzyl-22-isobutyl-3-((5-methoxypyridin-3-yl)sulfonyl)-21-methyl-N-(2-(3-methylisoxazol-5-yl)ethyl)-5,16,20,23-tetraoxo-2,3,4,4a,5,6,7,8,16,17,18,19,20,21,22,23-hexadecahydro-1H-naphtho[1,2-p]pyrazino[2,1-f][1]oxa[4,7,10,14]tetraazacycloheptadecine-18-carboxamide] |  |  | 
4 |  |  | Cc1cc2c3c(ccc2cn1)OC[C@@H](Cc1ccccc1)NC(=O)[C@@H](C)N(C)C(=O)[C@H](CC(C)C)N(C)C(=O)C[C@@H](C(=O)NCCc1cc(C)no1)NC3=O [Example 824, (3S,7S,10R,13R)-13-benzyl-7-isobutyl-6,9,10,20-tetramethyl-N-(2-(3-methylisoxazol-5-yl)ethyl)-1,5,8,11-tetraoxo-1,2,3,4,5,6,7,8,9,10,11,12,13,14-tetradecahydro-[1]oxa[4,7,10,14]tetraazacycloheptadecino[16,17-f]isoquinoline-3-carboxamide] |  |  | EC50 [5]: 674 nM; Emax [6]: 354%
5 |  |  | [2H]C([2H])([2H])Oc1cccc(CCNC(=O)[C@@H]2CC(=O)N(C)[C@@H](CC(C)C)C(=O)N(CCC3CCCCC3)CC(=O)N[C@H](Cc3ccccc3)COc3cnc4ccccc4c3C(=O)N2)c1 [Example 316, (3S,7S,13R)-13-benzyl-9-(2-cyclohexylethyl)-7-isobutyl-N-(3-(methoxy-d3)phenethyl)-6-methyl-1,5,8,11-tetraoxo-1,2,3,4,5,6,7,8,9,10,11,12,13,14-tetradecahydro-[1]oxa[4,7,10,14]tetraazacycloheptadecino[17,16-c]quinoline-3-carboxamide] | 55 nM | 343% | 
6 | 398 nM | 156% | Cc1cc(CCNC(=O)[C@@H]2CC(=O)N(C)[C@@H](CC(C)C)C(=O)N(C[C@H]3COc4ccccc4C3)CC(=O)N[C@H](Cc3ccccc3)COc3cnc4ccccc4c3C(=O)N2)on1 [Example 704, (3S,7S,13R)-13-benzyl-9-(((S)-chroman-3-yl)methyl)-7-isobutyl-6-methyl-N-(2-(3-methylisoxazol-5-yl)ethyl)-1,5,8,11-tetraoxo-1,2,3,4,5,6,7,8,9,10,11,12,13,14-tetradecahydro-[1]oxa[4,7,10,14]tetraazacycloheptadecino[17,16-c]quinoline-3-carboxamide] |  |  | 
7 |  |  | COc1cccc2c1C(=O)N[C@H](C(=O)NCCc1ccco1)CC(=O)N(C)[C@@H](CC(C)C)C(=O)N(CCC1CCCCC1)CC(=O)N[C@H](Cc1ccccc1)CO2 [Example 208, (3R,9S,13S)-3-benzyl-7-(2-cyclohexylethyl)-N-(2-(furan-2-yl)ethyl)-9-isobutyl-16-methoxy-10-methyl-5,8,11,15-tetraoxo-2,3,4,5,6,7,8,9,10,11,12,13,14,15-tetradecahydrobenzo[p][1]oxa[4,7,10,14]tetraazacycloheptadecine-13-carboxamide] | 277 nM | 188% | 
8 | 296 nM | 131% | CC(C)C[C@H]1C(=O)N2CCOC[C@@H]2C(=O)N[C@H](Cc2ccccc2)COc2ccc3ccccc3c2C(=O)N[C@H](C(=O)NCCc2cccc(C#N)c2)CC(=O)N1C [Example 759, (4aR,7R,18S,22S)-7-Benzyl-N-(3-cyanophenethyl)-22-isobutyl-21-methyl-5,16,20,23-tetraoxo-1,2,4,4a,5,6,7,8,16,17,18,19,20,21,22,23-hexadecahydronaphtho[1,2-p][1,4]oxazino[3,4-f][1]oxa[4,7,10,14]tetraazacycloheptadecine-18-carboxamide] |  |  | 
9 | 158 nM | 201% | CCN1C(=O)C[C@@H](C(=O)NCCc2nc(C3CC3)no2)NC(=O)c2c(cnc3ccccc23)OC[C@@H](Cc2ccccc2)NC(=O)[C@H]2CCCCN2C(=O)[C@@H]1CC(C)C [Example 646, (9S,13S,19aR,22R)-22-benzyl-N-(2-(3-cyclopropyl-1,2,4-oxadiazol-5-yl)ethyl)-12-ethyl-13-isobutyl-7,11,14,20-tetraoxo-7,8,9,10,11,12,13,14,17,18,19,19a,20,21,22,23-hexadecahydro-16H-pyrido[2′,1′:6,7][1]oxa[4,7,10,14]tetraazacycloheptadecino[17,16-c]quinoline-9-carboxamide] |  |  | 
10 |  |  | COc1nc(C)cc2c1C(=O)N[C@H](C(=O)NC[C@@H](O)c1ccccc1)CC(=O)N(C)[C@@H](CC(C)C)C(=O)N(C)[C@H](Cc1nc(C(F)(F)F)no1)C(=O)N[C@H](Cc1ccccc1)CO2 [Example 848, (3R,6R,9S,13S)-3-benzyl-N-((S)-2-hydroxy-2-phenylethyl)-9-isobutyl-16-methoxy-7,10,18-trimethyl-5,8,11,15-tetraoxo-6-((3-(trifluoromethyl)-1,2,4-oxadiazol-5-yl)methyl)-2,3,4,5,6,7,8,9,10,11,12,13,14,15-tetradecahydropyrido[3,4-p][1]oxa[4,7,10,14]tetraazacycloheptadecine-13-carboxamide] |  |  | EC50 [5]: 225 nM; Emax [6]: 364%

Row | Compound | EC50 [3] | Emax [4] | EC50 [1] | Emax [2] | also measured
11 | Cc1cc(CCNC(=O)[C@@H]2CC(=O)N(C)[C@@H](CC(C)C)C(=O)N(C)[C@@H](COC(C)(C)C)C(=O)N[C@H](Cc3ccccc3)COc3ccc4ccccc4c3C(=O)N2)on1 (racemic) [Example 719, (3S,7S,10RS,13R)-13-benzyl-10-(tert-butoxymethyl)-7-isobutyl-6,9-dimethyl-N-(2-(3-methylisoxazol-5-yl)ethyl)-1,5,8,11-tetraoxo-1,2,3,4,5,6,7,8,9,10,11,12,13,14-tetradecahydronaphtho[1,2-p][1]oxa[4,7,10,14]tetraazacycloheptadecine-3-carboxamide] | 124 nM | 313% |  |  | 

— patent publication US20240208992A1, “MACROCYCLES AS CFTR MODULATORS” (Idorsia Pharmaceuticals Ltd, priority 2021, published 2024)
